From patent US12410166B2, “Sulfonylamidine substituted compounds and their use as beta-lactamase inhibitors” (NINGXIA ACADEMY OF AGRICULTURE AND FORESTRY SCIENCES, priority 2021, dated 2025)
Where two headings read alike, the source gives them in different places.

What was measured:
Experiment in all cases: MIC by broth microdilution (antibacterial and synergistic activity)
Assay type in all cases: cell-based
[1] = test system: K. pneumoniae clinical isolate (strain 3, SHV-1); conditions: strain 3 (SHV-1); for MIC: Klebsiella pneumoniae; for MIC of imipenem in combination with the inhibitor (IMI + inhibitor) / MIC of meropenem in combination with the inhibitor (MER + inhibitor): inhibitor at constant 4 mg/L
Description: (§1) Compounds of the present invention alone, avibactam (AVI) alone, relebactam (REL) alone, meropenem (MER) alone, imipenem (IMI) alone, and as a combination of compounds of the present invention, or avibactam or relebactam with test antibiotic (meropenem or imipenem) was tested for antimicrobial activity by determining minimum inhibitory concentration (MIC, mg/L) using the broth microdilution method according to the guidelines of the Clinical Laboratories and Standards Institute (“Methods for Dilution Antimicrobial Susceptibility Tests for Bacterial that Grow Aerobically”, Approved standard, 7th ed., Clinical and Laboratories Standards Institute (CLSI) Document M7-A8, Wayne, Pa., USA, 2009). Meropenem or imipenem as a test antibiotic compound was dissolved in DMSO, and then diluted in microbial growth medium (Mueller-Hinton Broth II, cation adjusted) resulting in a final concentration range of 0.031-64 mg/L in serial two-fold dilution. In all cases the final DMSO concentration was less than 0.5%. Bacteria were added to 96-well microtitre plates containing the serial two-fold dilutions of the compounds; the final cell density was approximately 5×10^5 colony forming units/mL (CFU/mL). Plates were incubated at 37° C. for 18-24 hours and read visually. The MIC, i.e. the lowest concentration of the test compound that inhibited visible growth of the bacteria, was recorded. The same assay conditions were used when the compounds of present invention alone, avibactam or relebactam alone (as a control), and as a combination of the present invention each compound, or avibactam or relebactam with test meropenem or imipenem antibiotic compound was tested for minimum inhibitory concentration (MIC, mg/L). While test meropenem or imipenem was serially diluted as described above, a constant concentration of avibactam, or relebactam or the present invention each compound of 4 mg/L was used.
(§2) Bacterial strains that were used to evaluate the antimicrobial activity using the MIC determination included but were not limited to E. coli clinical isolate (strain 1, TEM-1), E. coli 8739 (strain 2, CTX-M15), K. pneumoniae clinical isolate (strain 3, SHV-1), K. pneumoniae 700603 (strain 4, KPC-3, TEM-1), E. cloacae clinical isolate (strain 5, P99), E. cloacae 700323 (strain 6, AmpC), A. baumannii clinical isolate (strain 7, OXA-23, OXA-40), A. baumannii 19606 (strain 8, OXA-24), P. aeruginosa clinical isolate (strain 9, KPC-2), P. aeruginosa 9027 (strain 10, AmpC).

[2] = test system: E. coli 8739 (strain 2, CTX-M15); conditions: for MIC: Escherichia coli, read-out: Antibacterial activity, MIC, inhibitor Alone
Description: as §1, §2

[3] = test system: K. pneumoniae 700603 (strain 4, KPC-3, TEM-1); conditions: strain 4 (KPC-3, TEM-1); for MIC: Klebsiella pneumoniae; for MIC of imipenem in combination with the inhibitor (IMI + inhibitor) / MIC of meropenem in combination with the inhibitor (MER + inhibitor): inhibitor at constant 4 mg/L
Description: as §1, §2

[4] = test system: A. baumannii 19606 (strain 8, OXA-24); conditions: for MIC: Acinetobacter baumannii
Description: as §1, §2

[5] = test system: P. aeruginosa clinical isolate (strain 9, KPC-2); conditions: strain 9 (KPC-2); for MIC: Pseudomonas aeruginosa; for MIC of imipenem in combination with the inhibitor (IMI + inhibitor) / MIC of meropenem in combination with the inhibitor (MER + inhibitor): inhibitor at constant 4 mg/L
Description: as §1, §2

[6] = test system: A. baumannii clinical isolate (strain 7, OXA-23, OXA-40); conditions: strain 7 (OXA-23/40); for MIC: Acinetobacter baumannii; for MIC of imipenem in combination with the inhibitor (IMI + inhibitor) / MIC of meropenem in combination with the inhibitor (MER + inhibitor): inhibitor at constant 4 mg/L
Description: as §1, §2

[7] = test system: E. cloacae 700323 (strain 6, AmpC); conditions: strain 6 (AmpC); for MIC: Enterobacter cloacae; for MIC of imipenem in combination with the inhibitor (IMI + inhibitor) / MIC of meropenem in combination with the inhibitor (MER + inhibitor): inhibitor at constant 4 mg/L
Description: as §1, §2

[8] = test system: E. coli clinical isolate (strain 1, TEM-1); conditions: strain 1 (TEM-1); for MIC: Escherichia coli; for MIC of imipenem in combination with the inhibitor (IMI + inhibitor) / MIC of meropenem in combination with the inhibitor (MER + inhibitor): inhibitor at constant 4 mg/L
Description: as §1, §2

[9] = test system: E. cloacae clinical isolate (strain 5, P99); conditions: strain 5 (P99); for MIC: Enterobacter cloacae; for MIC of imipenem in combination with the inhibitor (IMI + inhibitor) / MIC of meropenem in combination with the inhibitor (MER + inhibitor): inhibitor at constant 4 mg/L
Description: as §1, §2

[10] = test system: P. aeruginosa 9027 (strain 10, AmpC); conditions: strain 10 (AmpC); for MIC: Pseudomonas aeruginosa; for MIC of imipenem in combination with the inhibitor (IMI + inhibitor) / MIC of meropenem in combination with the inhibitor (MER + inhibitor): inhibitor at constant 4 mg/L
Description: as §1, §2

[11] = compound alone, no antibiotic, read-out: Antibacterial activity, MIC, inhibitor Alone
[12] = read-out: Antibacterial activity, MIC, inhibitor Alone
[13] = strain 8 (OXA-24), inhibitor at constant 4 mg/L
[14] = imipenem alone, read-out: MIC, IMI Alone
[15] = meropenem alone, read-out: MIC, MER Alone

NC(=O)[C@@H]1CC[C@@H]2CN1C(=O)N2OS(=O)(=O)O [AVI, avibactam, reference compound]
MIC [1, 11]: > 64 µg/mL
MIC [2]: > 64 µg/mL
MIC [3, 11]: > 64 µg/mL
MIC [4, 12]: > 64 µg/mL
MIC [5, 11]: > 64 µg/mL
MIC [6, 11]: > 64 µg/mL
MIC [7, 11]: > 64 µg/mL
MIC [8, 11]: > 64 µg/mL
MIC [9, 11]: > 64 µg/mL
MIC [10, 11]: > 64 µg/mL

N=C(NS(=O)(=O)CC(F)(F)F)[C@@H]1CC[C@@H]2CN1C(=O)N2OS(=O)(=O)[O-].[Na+] [Ex. 1, Sodium (2S,5R)-7-oxo-2-(N-((2,2,2-trifluoroethyl)sulfonyl)caramimidoyl)-1,6-diazabicyclo[3.2.1]octan-6-yl sulfate]
Antibacterial activity, MIC, inhibitor Alone ([1]; compound alone, no antibiotic): >64 µg/mL
MIC of imipenem in combination with the inhibitor (IMI + inhibitor) [1]: 0.25 µg/mL
MIC of meropenem in combination with the inhibitor (MER + inhibitor) [1]: 0.125 µg/mL
Antibacterial activity, MIC, inhibitor Alone ([2]; strain 2 (CTX-M15), compound alone, no antibiotic): >64 µg/mL
Antibacterial activity, MIC, inhibitor Alone ([3]; compound alone, no antibiotic): >64 µg/mL
MIC of imipenem in combination with the inhibitor (IMI + inhibitor) [3]: 0.25 µg/mL
MIC of meropenem in combination with the inhibitor (MER + inhibitor) [3]: <0.125 µg/mL
Antibacterial activity, MIC, inhibitor Alone ([4]; strain 8 (OXA-24), compound alone, no antibiotic): >64 µg/mL
MIC of imipenem in combination with the inhibitor (IMI + inhibitor) [4, 13]: 0.062 µg/mL
MIC of meropenem in combination with the inhibitor (MER + inhibitor) [4, 13]: 0.5 µg/mL
Antibacterial activity, MIC, inhibitor Alone ([5]; compound alone, no antibiotic): >64 µg/mL
MIC of imipenem in combination with the inhibitor (IMI + inhibitor) [5]: 0.25 µg/mL
MIC of meropenem in combination with the inhibitor (MER + inhibitor) [5]: 0.125 µg/mL
Antibacterial activity, MIC, inhibitor Alone ([6]; compound alone, no antibiotic): >64 µg/mL
MIC of imipenem in combination with the inhibitor (IMI + inhibitor) [6]: 0.0625 µg/mL
MIC of meropenem in combination with the inhibitor (MER + inhibitor) [6]: <0.125 µg/mL
Antibacterial activity, MIC, inhibitor Alone ([7]; compound alone, no antibiotic): >64 µg/mL
MIC of imipenem in combination with the inhibitor (IMI + inhibitor) [7]: 0.0625 µg/mL
MIC of meropenem in combination with the inhibitor (MER + inhibitor) [7]: <0.125 µg/mL
Antibacterial activity, MIC, inhibitor Alone ([8]; compound alone, no antibiotic): >64 µg/mL
MIC of imipenem in combination with the inhibitor (IMI + inhibitor) [8]: 0.125 µg/mL
MIC of meropenem in combination with the inhibitor (MER + inhibitor) [8]: <0.125 µg/mL
Antibacterial activity, MIC, inhibitor Alone ([9]; compound alone, no antibiotic): >64 µg/mL
MIC of imipenem in combination with the inhibitor (IMI + inhibitor) [9]: 1 µg/mL
MIC of meropenem in combination with the inhibitor (MER + inhibitor) [9]: <0.125 µg/mL
Antibacterial activity, MIC, inhibitor Alone ([10]; compound alone, no antibiotic): >64 µg/mL
MIC of imipenem in combination with the inhibitor (IMI + inhibitor) [10]: 0.5 µg/mL
MIC of meropenem in combination with the inhibitor (MER + inhibitor) [10]: 0.125 µg/mL

COC(=O)CS(=O)(=O)NC(=N)[C@@H]1CC[C@@H]2CN1C(=O)N2OS(=O)(=O)[O-].[Na+] [Ex. 2, Sodium (2S,5R)-2-(N-((2-methoxy-2-oxoethyl)sulfonyl)caramimidoyl)-7-oxo-1,6-diazabicyclo[3.2.1]octan-6-yl sulfate]
MIC of imipenem in combination with the inhibitor (IMI + inhibitor) [1]: 0.25 µg/mL
MIC of meropenem in combination with the inhibitor (MER + inhibitor) [1]: 0.125 µg/mL
MIC of imipenem in combination with the inhibitor (IMI + inhibitor) [3]: <0.125 µg/mL
MIC of meropenem in combination with the inhibitor (MER + inhibitor) [3]: <0.125 µg/mL
MIC of meropenem in combination with the inhibitor (MER + inhibitor) [4, 13]: 0.5 µg/mL
MIC of imipenem in combination with the inhibitor (IMI + inhibitor) [5]: 1.0 µg/mL
MIC of meropenem in combination with the inhibitor (MER + inhibitor) [5]: 0.125 µg/mL
MIC of imipenem in combination with the inhibitor (IMI + inhibitor) [6]: 0.25 µg/mL
MIC of meropenem in combination with the inhibitor (MER + inhibitor) [6]: <0.125 µg/mL
MIC of imipenem in combination with the inhibitor (IMI + inhibitor) [7]: 0.5 µg/mL
MIC of meropenem in combination with the inhibitor (MER + inhibitor) [7]: <0.125 µg/mL
MIC of imipenem in combination with the inhibitor (IMI + inhibitor) [8]: <0.125 µg/mL
MIC of meropenem in combination with the inhibitor (MER + inhibitor) [8]: <0.125 µg/mL
MIC of imipenem in combination with the inhibitor (IMI + inhibitor) [9]: <0.125 µg/mL
MIC of meropenem in combination with the inhibitor (MER + inhibitor) [9]: <0.125 µg/mL
MIC of imipenem in combination with the inhibitor (IMI + inhibitor) [10]: 1.0 µg/mL
MIC of meropenem in combination with the inhibitor (MER + inhibitor) [10]: <0.125 µg/mL

COCCS(=O)(=O)NC(=N)[C@@H]1CC[C@@H]2CN1C(=O)N2OS(=O)(=O)[O-].[Na+] [Ex. 3, Sodium (2S,5R)-2-(N-((2-methoxyethyl)sulfonyl)carbamimidoyl)-7-oxo-1,6-diazabicyclo[3.2.1]octan-6-yl sulfate]
MIC [1, 11]: > 64 µg/mL
MIC [2]: > 64 µg/mL
MIC [3, 11]: > 64 µg/mL
MIC [4, 12]: > 64 µg/mL
MIC [5, 11]: > 64 µg/mL
MIC [6, 11]: > 64 µg/mL
MIC [7, 11]: > 64 µg/mL
MIC [8, 11]: > 64 µg/mL
MIC [9, 11]: > 64 µg/mL
MIC [10, 11]: > 64 µg/mL

Cn1cnc(S(=O)(=O)NC(=N)[C@@H]2CC[C@@H]3CN2C(=O)N3OS(=O)(=O)[O-])c1.[Na+] [Ex. 7, Sodium (2S,5R)-2-(N-((1-methyl-1H-imidazol-4-yl)sulfonyl)carbamimidoyl)-7-oxo-1,6-diazabicyclo[3.2.1]octan-6-yl sulfate]
MIC [1, 11]: > 64 µg/mL
MIC [2]: > 64 µg/mL
MIC [3, 11]: > 64 µg/mL
MIC [4, 12]: > 64 µg/mL
MIC [6, 11]: > 64 µg/mL
MIC [7, 11]: > 64 µg/mL
MIC [8, 11]: > 64 µg/mL
MIC [9, 11]: > 64 µg/mL
MIC [10, 11]: > 64 µg/mL

C[C@@H](O)[C@H]1C(=O)N2C(C(=O)O)=C(SCCN=CN)C[C@H]12 [IMI, imipenem, reference compound]
MIC [1, 14]: 2 µg/mL
MIC [3, 14]: 4 µg/mL
MIC ([4]; read-out: MIC, IMI Alone): 2 µg/mL
MIC [5, 14]: 2 µg/mL
MIC [6, 14]: 0.5 µg/mL
MIC [7, 14]: 0.5 µg/mL
MIC [8, 14]: 0.5 µg/mL
MIC [9, 14]: 4 µg/mL
MIC [10, 14]: 4 µg/mL

C[C@@H](O)[C@H]1C(=O)N2C(C(=O)O)=C(S[C@@H]3CN[C@H](C(=O)N(C)C)C3)[C@H](C)[C@H]12 [MER, meropenem, reference compound]
MIC [1, 15]: 4 µg/mL
MIC [3, 15]: 2 µg/mL
MIC ([4]; read-out: MIC, MER Alone): 2 µg/mL
MIC [5, 15]: 4 µg/mL
MIC [6, 15]: 4 µg/mL
MIC [7, 15]: 4 µg/mL
MIC [8, 15]: 4 µg/mL
MIC [9, 15]: 4 µg/mL
MIC [10, 15]: 4 µg/mL
